In this assay the target is δ opioid receptor (DOR) (Homo sapiens, UniProt P41143). The experiment in a line: competition radioligand binding vs 3H-diprenorphine, DOR-CHO membranes.

Some results are limits rather than exact numbers.

One may read the Ki as a dissociation constant, usually derived from enzyme kinetics or from competition with a known ligand. Higher therefore signals a looser hold on the target.

Chain of δ opioid receptor (DOR) (P41143 whole entry): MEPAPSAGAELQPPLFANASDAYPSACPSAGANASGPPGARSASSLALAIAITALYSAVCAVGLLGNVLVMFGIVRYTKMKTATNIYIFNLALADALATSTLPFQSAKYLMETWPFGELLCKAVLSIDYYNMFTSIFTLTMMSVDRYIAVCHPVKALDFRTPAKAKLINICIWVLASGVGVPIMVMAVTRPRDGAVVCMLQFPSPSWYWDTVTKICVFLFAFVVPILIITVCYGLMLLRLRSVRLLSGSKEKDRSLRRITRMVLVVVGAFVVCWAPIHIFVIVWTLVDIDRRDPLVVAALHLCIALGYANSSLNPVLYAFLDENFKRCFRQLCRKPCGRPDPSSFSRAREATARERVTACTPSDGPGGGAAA

Compound `Cc1noc(C)c1CC(=O)NCc1nc(NCCCc2ccccc2)c2ccccc2n1` [IPPQ, 2-(3,5-dimethylisoxazol-4-yl)-N-((4-((3-phenylpropyl)amino)quinazolin-2-yl)methyl)acetamide] registered a Ki of more than 1000 nM.

Values taken from publication PMC8998802 (Pain, 2019).
